According to ChEMBL document CHEMBL1154337, “Synthesis of a novel C2/C2'-aryl-substituted pyrrolo[2,1-c][1,4]benzodiazepine dimer prodrug with improved water solubility and reduced DNA reaction rate” (Bioorg Med Chem Lett, 2009):

What was measured:
[1] = system: K562; test: Cytotoxicity against human K562 cells by alamar blue assay; type: functional
[2] = system: MCF7; test: Cytotoxicity against human MCF7 cells by alamar blue assay; type: functional
[3] = system: LOX IMVI; test: Cytotoxicity against human LOXIMVI cells by alamar blue assay; type: functional
[4] = system: RPMI-8226; test: Cytotoxicity against human RPMI8226 cells by alamar blue assay; type: functional
[5] = system: A2780; test: Cytotoxicity against human A2780 cells by alamar blue assay; type: functional
[6] = Cytotoxicity against human LNCaP-FGC cells by alamar blue assay; type: functional; conditions: LNCaP-Clone-FGC
[7] = system: A549; test: Cytotoxicity against human A549 cells by alamar blue assay; type: functional
[8] = system: Nucleic Acid; test: Induction of Escherichia coli pUC18 DNA interstrand crosslinking activity assessed as time required to reach peak; type: nucleic-acid assay
[9] = system: DU-145; test: Cytotoxicity against human DU145 cells by alamar blue assay; type: functional

Row | SMILES | GI50 [1] [nM] | GI50 [2] [nM] | GI50 [3] [nM] | GI50 [4] [pM] | GI50 [5] [pM] | GI50 [6] [pM] | GI50 [7] [nM] | Activity [8] [h] | GI50 [9] [nM]
1 | C=C1C[C@H]2C=Nc3cc(OCCCOc4cc5c(cc4OC)C(=O)N4CC(=C)C[C@H]4C=N5)c(OC)cc3C(=O)N2C1 [SJG-136] | 0.419 | – | – | – | – | – | – | – | –
2 | COc1ccc(C2=CN3C(=O)c4cc(OC)c(OCCCOc5cc6c(cc5OC)C(=O)N5C=C(c7ccc(OC)cc7)C[C@H]5C=N6)cc4N=C[C@@H]3C2)cc1 | 0.013 | 0.0186 | 0.0225 | 5.1 | 2.4 | 2.7 | 0.033 | 2 | 0.0154
